Measured values from patent publication US4014883A, “Indoloquinolines, intermediates and processes” (Hoffmann-La Roche Inc., priority 1975, dated 1977).

Key:
Sarcoma 180 (S-180) = experiment: inhibition of growth of transplantable Sarcoma 180 (S-180) tumors, C/T ratio; assay type: in vivo; conditions: S-180 in mice, once daily for 8 days, ratio greater than 2 = active
acute LD50 in mice = conditions: mouse, in vivo

CN(C)CCn1c(=O)c2[nH]c3ccc(Cl)cc3c2c2ccccc21 [10-chloro-5-(2-dimethylaminoethyl)-7H-indolo[2,3-c]quinolin-6(5H)-one]
C/T ratio (average tumor weight of untreated controls / treated) (Sarcoma 180 (S-180); 100 mg/kg i.p.): 3.50 | C/T ratio (average tumor weight of untreated controls / treated) (Sarcoma 180 (S-180); 100 mg/kg orally): 3.05 | LD50 (acute LD50 in mice; ip): > 2000 mg/kg | LD50 (acute LD50 in mice; po): > 4000 mg/kg
